Reference: PMC9050811 (RSC Advances, 2020)
Converted amounts (≈) assume the structure as drawn. Read-outs that look alike come from different tables or passages of the source.

Columns and labels:
[1] = system: M. tuberculosis H37Ra-lux; test: microbe, parasite or virus in culture; format: cell-based, Mycobacterium tuberculosis; conditions: for IC50: read-out: M. tuberculosis H37Ra-lux IC50; for IC90: read-out: M. tuberculosis H37Ra-lux IC90
[2] = system: Escherichia coli; test: Antibacterial screening against E. coli; format: cell-based; conditions: read-out: E. coli IC50
[3] = system: Staphylococcus aureus; test: Antibacterial screening against S. aureus; format: cell-based; conditions: read-out: S. aureus IC50
[4] = system: MTB; conditions: cited from earlier work
[5] = system: MTB H37Rv; conditions: cited from earlier work
[6] = Mycobacterium tuberculosis, H37RA, 168 h

`O=C(Nc1ccc(N2CCN(C(=O)c3cnccn3)CC2)nc1)c1ccccc1` [6a, N-(6-(4-(Pyrazine-2-carbonyl)piperazin-1-yl)pyridin-3-yl)benzamide] showed an IC50 [1, 6] of 1.46 µM, an IC50 [2] greater than 64 µM and an IC50 ([3]; Staphylococcus aureus) greater than 64 µM.
`COc1ccc(C(=O)Nc2ccc(N3CCN(C(=O)c4cnccn4)CC3)nc2)cc1` [6b, 4-Methoxy-N-(6-(4-(pyrazine-2-carbonyl)piperazin-1-yl)pyridin-3-yl)benzamide] gave an IC50 [1, 6] greater than 64 µM, an IC50 [2] greater than 64 µM and an IC50 ([3]; Staphylococcus aureus) greater than 64 µM.
In the case of `CC(C)(C)c1ccc(C(=O)Nc2ccc(N3CCN(C(=O)c4cnccn4)CC3)nc2)cc1` [6c, 4-(tert-Butyl)-N-(6-(4-(pyrazine-2-carbonyl)piperazin-1-yl)pyridin-3-yl)benzamide], the IC50 [1, 6] is reported as greater than 64 µM, the IC50 [2] is reported as greater than 64 µM and the IC50 ([3]; Staphylococcus aureus) is reported as greater than 64 µM.
With `O=C(Nc1ccc(N2CCN(C(=O)c3cnccn3)CC2)nc1)c1ccc(Cl)cc1` [6d, 4-Chloro-N-(6-(4-(pyrazine-2-carbonyl)piperazin-1-yl)pyridin-3-yl)benzamide] the IC50 [1, 6] was greater than 64 µM, the IC50 [2] was greater than 64 µM and the IC50 ([3]; Staphylococcus aureus) was greater than 64 µM.
`O=C(Nc1ccc(N2CCN(C(=O)c3cnccn3)CC2)nc1)c1ccc(Br)cc1` [6e, 4-Bromo-N-(6-(4-(pyrazine-2-carbonyl)piperazin-1-yl)pyridin-3-yl)benzamide] gave an IC50 [1, 6] of 2.18 µM, an IC50 [2] greater than 64 µM and an IC50 ([3]; Staphylococcus aureus) greater than 64 µM.
For `O=C(Nc1ccc(N2CCN(C(=O)c3cnccn3)CC2)nc1)c1cccc([N+](=O)[O-])c1` [6f, 3-Nitro-N-(6-(4-(pyrazine-2-carbonyl)piperazin-1-yl)pyridin-3-yl)benzamide], the “Anti-TB activity against M. tuberculosis H37Ra in words” value (shortened to “Anti-TB activity”) [1] was “inactive”, the IC50 [1, 6] was greater than 64 µM and the IC50 [2] was greater than 64 µM. For the same compound, the IC50 ([3]; Staphylococcus aureus) was greater than 64 µM.
With `O=C(Nc1ccc(N2CCN(C(=O)c3cnccn3)CC2)nc1)c1cccc(Br)c1` [6g, 3-Bromo-N-(6-(4-(pyrazine-2-carbonyl)piperazin-1-yl)pyridin-3-yl)benzamide] the “Anti-TB activity” value [1] was “inactive”, the IC50 [1, 6] was greater than 64 µM and the IC50 [2] was greater than 64 µM. It also gave an IC50 ([3]; Staphylococcus aureus) greater than 64 µM.
In the case of `Cc1ccccc1C(=O)Nc1ccc(N2CCN(C(=O)c3cnccn3)CC2)nc1` [6h, 2-Methyl-N-(6-(4-(pyrazine-2-carbonyl)piperazin-1-yl)pyridin-3-yl)benzamide], the IC50 [1, 6] is reported as 1.82 µM, the IC90 [1] is reported as 3.85 µM and the IC50 [2] is reported as greater than 64 µM. It also gave an IC50 ([3]; Staphylococcus aureus) greater than 64 µM.
With `O=C(Nc1ccc(N2CCN(C(=O)c3cnccn3)CC2)nc1)c1ccccc1I` [6i, 2-Iodo-N-(6-(4-(pyrazine-2-carbonyl)piperazin-1-yl)pyridin-3-yl)benzamide] the IC50 [1, 6] was greater than 64 µM, the IC50 [2] was greater than 64 µM and the IC50 ([3]; Staphylococcus aureus) was greater than 64 µM.
Compound `O=C(Nc1ccc(N2CCN(C(=O)c3cnccn3)CC2)nc1)c1c(Cl)cccc1Br` [6j, 2-Bromo-6-chloro-N-(6-(4-(pyrazine-2-carbonyl)piperazin-1-yl)pyridin-3-yl)benzamide] has an IC50 [1, 6] of 1.82 µM, an IC50 [1] of 2.14 µM and an IC90 [1] of 3.94 µM. For the same compound, the IC50 [2] was greater than 64 µM and the IC50 ([3]; Staphylococcus aureus) was greater than 64 µM.
For `O=C(Nc1ccc(N2CCN(C(=O)c3cnccn3)CC2)nc1)c1ccc(Br)cc1Cl` [6k, 4-Bromo-2-chloro-N-(6-(4-(pyrazine-2-carbonyl)piperazin-1-yl)pyridin-3-yl)benzamide], the IC50 [1, 6] was 1.35 µM, the IC50 [2] was greater than 64 µM and the IC50 ([3]; Staphylococcus aureus) was greater than 64 µM.
In the case of `O=C(Nc1ccc(N2CCN(C(=O)c3cnccn3)CC2)nc1)c1ccc(Cl)cc1Cl` [6l, 2,4-Dichloro-N-(6-(4-(pyrazine-2-carbonyl)piperazin-1-yl)pyridin-3-yl)benzamide], the “Anti-TB activity” value [1] is reported as “inactive”, the IC50 [1, 6] is reported as greater than 64 µM and the IC50 [2] is reported as greater than 64 µM. The IC50 ([3]; Staphylococcus aureus) was greater than 64 µM.
In the case of `O=C(Nc1ccc(N2CCN(C(=O)c3cnccn3)CC2)nc1)c1ccncc1` [6m, N-(6-(4-(Pyrazine-2-carbonyl)piperazin-1-yl)pyridin-3-yl)isonicotinamide], the “Anti-TB activity” value [1] is reported as “loss of activity”, the IC50 [1, 6] is reported as greater than 64 µM and the IC50 [2] is reported as greater than 64 µM. The IC50 ([3]; Staphylococcus aureus) was greater than 64 µM.
With `O=C(Nc1ccc(N2CCN(C(=O)c3cnccn3)CC2)nc1)c1cnccn1` [6n, N-(6-(4-(Pyrazine-2-carbonyl)piperazin-1-yl)pyridin-3-yl)pyrazine-2-carboxamide] the “Anti-TB activity” value [1] was “loss of activity”, the IC50 [1, 6] was greater than 64 µM and the IC50 [2] was greater than 64 µM. The IC50 ([3]; Staphylococcus aureus) was greater than 64 µM.
Compound `O=C(Nc1ccc(N2CCCN(C(=O)c3cnccn3)CC2)nc1)c1ccccc1` [7a, N-(6-(4-(Pyrazine-2-carbonyl)-1,4-diazepan-1-yl)pyridin-3-yl)benzamide] has an IC50 [1, 6] greater than 64 µM, an IC50 [2] greater than 64 µM and an IC50 ([3]; Staphylococcus aureus) greater than 64 µM.
For `CCOc1ccc(C(=O)Nc2ccc(N3CCCN(C(=O)c4cnccn4)CC3)nc2)cc1` [7b, 4-Ethoxy-N-(6-(4-(pyrazine-2-carbonyl)-1,4-diazepan-1-yl)pyridin-3-yl)benzamide], the IC50 [1, 6] was greater than 64 µM, the IC50 [2] was greater than 64 µM and the IC50 ([3]; Staphylococcus aureus) was greater than 64 µM.
With `CC(C)(C)c1ccc(C(=O)Nc2ccc(N3CCCN(C(=O)c4cnccn4)CC3)nc2)cc1` [7c, 4-(tert-Butyl)-N-(6-(4-(pyrazine-2-carbonyl)-1,4-diazepan-1-yl)pyridin-3-yl)benzamide] the IC50 [1, 6] was greater than 64 µM, the IC50 [2] was greater than 64 µM and the IC50 ([3]; Staphylococcus aureus) was greater than 64 µM.
`O=C(Nc1ccc(N2CCCN(C(=O)c3cnccn3)CC2)nc1)c1ccc(Cl)cc1` [7d, 4-Chloro-N-(6-(4-(pyrazine-2-carbonyl)-1,4-diazepan-1-yl)pyridin-3-yl)benzamide] showed an IC50 [1, 6] greater than 64 µM, an IC50 [2] greater than 64 µM and an IC50 ([3]; Staphylococcus aureus) greater than 64 µM.
Work on `O=C(Nc1ccc(N2CCCN(C(=O)c3cnccn3)CC2)nc1)c1ccc(Br)cc1` [7e, 4-Bromo-N-(6-(4-(pyrazine-2-carbonyl)-1,4-diazepan-1-yl)pyridin-3-yl)benzamide] yielded an IC50 [1, 6] of 2.12 µM, an IC50 [2] greater than 64 µM and an IC50 ([3]; Staphylococcus aureus) greater than 64 µM.
With `O=C(Nc1ccc(N2CCCN(C(=O)c3cnccn3)CC2)nc1)c1cccc([N+](=O)[O-])c1` [7f, 3-Nitro-N-(6-(4-(pyrazine-2-carbonyl)-1,4-diazepan-1-yl)pyridin-3-yl)benzamide] the IC50 [1, 6] was greater than 64 µM, the IC50 [2] was greater than 64 µM and the IC50 ([3]; Staphylococcus aureus) was greater than 64 µM.
Work on `O=C(Nc1ccc(N2CCCN(C(=O)c3cnccn3)CC2)nc1)c1cccc(Br)c1` [7g, 3-Bromo-N-(6-(4-(pyrazine-2-carbonyl)-1,4-diazepan-1-yl)pyridin-3-yl)benzamide] yielded an IC50 [1, 6] greater than 64 µM, an IC50 [2] greater than 64 µM and an IC50 ([3]; Staphylococcus aureus) greater than 64 µM.
For `O=C(Nc1ccc(N2CCCN(C(=O)c3cnccn3)CC2)nc1)c1ccccc1I` [7h, 2-Iodo-N-(6-(4-(pyrazine-2-carbonyl)-1,4-diazepan-1-yl)pyridin-3-yl)benzamide], the IC50 [1, 6] was greater than 64 µM, the IC50 [2] was greater than 64 µM and the IC50 ([3]; Staphylococcus aureus) was greater than 64 µM.
For `O=C(Nc1ccc(N2CCCN(C(=O)c3cnccn3)CC2)nc1)c1ccc(Br)cc1Cl` [7i, 4-Bromo-2-chloro-N-(6-(4-(pyrazine-2-carbonyl)-1,4-diazepan-1-yl)pyridin-3-yl)benzamide], the IC50 [1, 6] was greater than 64 µM, the IC50 [2] was greater than 64 µM and the IC50 ([3]; Staphylococcus aureus) was greater than 64 µM.
Compound `O=C(Nc1ccc(N2CCCN(C(=O)c3cnccn3)CC2)nc1)c1ccc(Cl)cc1Cl` [7j, 2,4-Dichloro-N-(6-(4-(pyrazine-2-carbonyl)-1,4-diazepan-1-yl)pyridin-3-yl)benzamide] has an IC50 [1, 6] greater than 64 µM, an IC50 [2] greater than 64 µM and an IC50 ([3]; Staphylococcus aureus) greater than 64 µM.
In the case of `O=C(Nc1ccc(N2CCCN(C(=O)c3cnccn3)CC2)nc1)c1cnccn1` [7k, N-(6-(4-(Pyrazine-2-carbonyl)-1,4-diazepan-1-yl)pyridin-3-yl)pyrazine-2-carboxamide], the IC50 [2] is reported as greater than 64 µM and the IC50 ([3]; Staphylococcus aureus) is reported as greater than 64 µM.
With `O=C(Nc1ccc(N2CCCN(C(=O)c3cnccn3)CC2)nc1)c1ccncc1` [7l, N-(6-(4-(Pyrazine-2-carbonyl)-1,4-diazepan-1-yl)pyridin-3-yl)isonicotinamide] the IC50 [1, 6] was greater than 64 µM, the IC50 [2] was greater than 64 µM and the IC50 ([3]; Staphylococcus aureus) was greater than 64 µM.
Work on `O=C(Nc1ccc(N2CCCN(C(=O)c3cnccn3)CC2)nc1)c1c(F)cccc1Cl` [7m, 2-Chloro-6-fluoro-N-(6-(4-(pyrazine-2-carbonyl)-1,4-diazepan-1-yl)pyridin-3-yl)benzamide] yielded an IC50 [1, 6] greater than 64 µM, an IC50 [2] greater than 64 µM and an IC50 ([3]; Staphylococcus aureus) greater than 64 µM.
In the case of `O=C(Nc1ccc(C(F)(F)F)cc1)c1cnccn1` [A, N-(4-(trifluoromethyl)phenyl)pyrazine-2-carboxamide], the “MIC, anti-mycobacterial activity” value [4] is listed as no more than 2 µg/L.
For `Cc1cccc(NC(=O)c2cnccn2)c1Br` [B, N-(2-bromo-3-methylphenyl)pyrazine-2-carboxamide], the “MIC, anti-mycobacterial activity” value [4] is given as no more than 2 µg/L.
In the case of `Cc1ccc(NC(=O)c2cnccn2)cc1I` [C, N-(3-iodo-4-methylphenyl)pyrazine-2-carboxamide], the “MIC, anti-mycobacterial activity” value [4] is listed as no more than 2 µg/L.
For `Cc1ccc(NC(=O)c2cnc(C(C)(C)C)c(Cl)n2)cc1I` [D, 5-(tert-Butyl)-6-chloro-N-(3-iodo-4-methylphenyl)pyrazine-2-carboxamide], the “IC50, anti-mycobacterial activity” value [4] is given as 0.728 µg/mL (≈ 1.69 µM) and the “IC90, anti-mycobacterial activity” value [4] is given as 0.819 µg/mL (≈ 1.91 µM).
With `C[C@H]1c2cccc(O)c2C(O)=C2C(=O)[C@]3(O)C(O)=C(C(N)=O)C(=O)[C@@H](N(C)C)[C@@H]3[C@@H](O)[C@@H]21` [Doxycyclin, reference compound] the IC50 [3] was 0.09 µM.
For `O=C(NCCN1CCNCC1)c1cnccn1` [E, N-(2-(piperazin-1-yl)ethyl)pyrazine-2-carboxamide], the “MIC against MTB H37Rv” value [5] is listed as 12.2 µg/mL (≈ 51.9 µM).
For `O=C(NCCN1CCOCC1)c1cnccn1` [F, N-(2-morpholinoethyl)pyrazine-2-carboxamide], the “MIC against MTB H37Rv” value [5] is listed as 8.0 µg/mL (≈ 33.9 µM).
`NNC(=O)c1ccncc1` [Isoniazid, reference compound] showed an IC50 [1, 6] of 0.013 µM.
`CCn1cc(C(=O)O)c(=O)c2cc(F)c(N3CCNCC3)cc21` [Norfloxacin, reference compound] showed an IC50 [2] of 0.38 µM.
For `NC(=O)c1cnccn1` [PZA, Pyrazinamide], the “IC90, anti-mycobacterial activity” value [4] is listed as greater than 20 µg/mL and the “MIC, anti-mycobacterial activity” value [4] is listed as 8 µg/L (≈ 0.065 µM).
